± gives the uncertainty stated by the source.
Test: xn = mol fraction of the nth substance listed

SMILES: CCCCC[N+](CC)(CC)CC.O=S(=O)([N-]S(=O)(=O)C(F)(F)F)C(F)(F)F + CCCCC[P+](CC)(CC)CC.O=S(=O)([N-]S(=O)(=O)C(F)(F)F)C(F)(F)F
- viscosity (298.15 K, 101.3 kPa, x1 = 0.2): 96.6 ± 19 mPa·s
- viscosity (303.15 K, 101.3 kPa, x1 = 0.2): 75.4 ± 15 mPa·s
- viscosity (303.15 K, 101.3 kPa, x1 = 0.4): 83.6 ± 17 mPa·s
- viscosity (303.15 K, 101.3 kPa, x1 = 0.6): 94.3 ± 19 mPa·s
- viscosity (308.15 K, 101.3 kPa, x1 = 0.2): 59.8 ± 12 mPa·s
- viscosity (308.15 K, 101.3 kPa, x1 = 0.4): 65.8 ± 13 mPa·s
- viscosity (308.15 K, 101.3 kPa, x1 = 0.6): 73.6 ± 15 mPa·s
- viscosity (308.15 K, 101.3 kPa, x1 = 0.8): 83.8 ± 17 mPa·s
- viscosity (313.15 K, 101.3 kPa, x1 = 0.4): 52.7 ± 11 mPa·s
- viscosity (313.15 K, 101.3 kPa, x1 = 0.6): 58.4 ± 12 mPa·s
- viscosity (318.15 K, 101.3 kPa, x1 = 0.8): 52.8 ± 11 mPa·s

SMILES: CCCOCCO + OCCOCCOCCO
- viscosity (293.15 K, 101 kPa, x1 = 0.0477): 37.18 ± 0.36 mPa·s
- viscosity (293.15 K, 101 kPa, x1 = 0.1028): 32.98 ± 0.32 mPa·s
- viscosity (293.15 K, 101 kPa, x1 = 0.2026): 26.12 ± 0.26 mPa·s
- viscosity (293.15 K, 101 kPa, x1 = 0.3116): 19.86 ± 0.19 mPa·s
- viscosity (293.15 K, 101 kPa, x1 = 0.397): 15.84 ± 0.14 mPa·s
- viscosity (293.15 K, 101 kPa, x1 = 0.4561): 13.47 ± 0.12 mPa·s
- viscosity (293.15 K, 101 kPa, x1 = 0.4963): 12.06 ± 0.11 mPa·s
- viscosity (293.15 K, 101 kPa, x1 = 0.549): 10.39 ± 0.093 mPa·s
- viscosity (293.15 K, 101 kPa, x1 = 0.5885): 9.266 ± 0.082 mPa·s
- viscosity (293.15 K, 101 kPa, x1 = 0.6941): 6.794 ± 0.064 mPa·s
- viscosity (293.15 K, 101 kPa, x1 = 0.8011): 4.892 ± 0.047 mPa·s
- viscosity (293.15 K, 101 kPa, x1 = 0.9015): 3.544 ± 0.033 mPa·s
- viscosity (293.15 K, 101 kPa, x1 = 0.9316): 3.208 ± 0.029 mPa·s
- viscosity (298.15 K, 101 kPa, x1 = 0.0552): 30.77 ± 0.3 mPa·s
- viscosity (298.15 K, 101 kPa, x1 = 0.1173): 26.96 ± 0.27 mPa·s
- viscosity (298.15 K, 101 kPa, x1 = 0.2033): 22.23 ± 0.21 mPa·s
- viscosity (298.15 K, 101 kPa, x1 = 0.3039): 17.54 ± 0.16 mPa·s
- viscosity (298.15 K, 101 kPa, x1 = 0.4049): 13.68 ± 0.12 mPa·s
- viscosity (298.15 K, 101 kPa, x1 = 0.4555): 12.02 ± 0.11 mPa·s
- viscosity (298.15 K, 101 kPa, x1 = 0.5186): 10.2 ± 0.092 mPa·s
- viscosity (298.15 K, 101 kPa, x1 = 0.5413): 9.595 ± 0.084 mPa·s
- viscosity (298.15 K, 101 kPa, x1 = 0.591): 8.373 ± 0.073 mPa·s
- viscosity (298.15 K, 101 kPa, x1 = 0.6905): 6.309 ± 0.055 mPa·s
- viscosity (298.15 K, 101 kPa, x1 = 0.7968): 4.592 ± 0.041 mPa·s
- viscosity (298.15 K, 101 kPa, x1 = 0.8962): 3.38 ± 0.031 mPa·s
- viscosity (298.15 K, 101 kPa, x1 = 0.9323): 3.003 ± 0.028 mPa·s
- viscosity (303.15 K, 101 kPa, x1 = 0.0529): 26.52 ± 0.26 mPa·s
- viscosity (303.15 K, 101 kPa, x1 = 0.1142): 23.47 ± 0.22 mPa·s
- viscosity (303.15 K, 101 kPa, x1 = 0.2041): 19.36 ± 0.18 mPa·s
- viscosity (303.15 K, 101 kPa, x1 = 0.2979): 15.66 ± 0.14 mPa·s
- viscosity (303.15 K, 101 kPa, x1 = 0.4027): 12.28 ± 0.11 mPa·s
- viscosity (303.15 K, 101 kPa, x1 = 0.4522): 10.91 ± 0.097 mPa·s
- viscosity (303.15 K, 101 kPa, x1 = 0.4952): 9.838 ± 0.085 mPa·s
- viscosity (303.15 K, 101 kPa, x1 = 0.5507): 8.582 ± 0.075 mPa·s
- viscosity (303.15 K, 101 kPa, x1 = 0.5939): 7.697 ± 0.066 mPa·s
- viscosity (303.15 K, 101 kPa, x1 = 0.6941): 5.899 ± 0.051 mPa·s
- viscosity (303.15 K, 101 kPa, x1 = 0.7987): 4.346 ± 0.038 mPa·s
- viscosity (303.15 K, 101 kPa, x1 = 0.9027): 3.083 ± 0.028 mPa·s
- viscosity (303.15 K, 101 kPa, x1 = 0.9431): 2.664 ± 0.025 mPa·s

SMILES: CC(=O)CCc1ccccc1 + CCCCCOC(C)=O
- viscosity (298.15 K, 101 kPa, x1 = 0.0322): 0.8102 ± 0.0099 mPa·s
- viscosity (298.15 K, 101 kPa, x1 = 0.0702): 0.8323 ± 0.01 mPa·s

SMILES: NCCOCCOCCN.O=S(=O)([N-]S(=O)(=O)C(F)(F)F)C(F)(F)F.[Li+] + O
- viscosity (323.15 K, 101 kPa, x1 = 0.0299): 1.86 ± 0.13 mPa·s
- viscosity (323.15 K, 101 kPa, x1 = 0.0598): 4.12 ± 0.23 mPa·s
- viscosity (323.15 K, 101 kPa, x1 = 0.1028): 8.92 ± 0.36 mPa·s
- viscosity (323.15 K, 101 kPa, x1 = 0.1994): 22.16 ± 0.68 mPa·s
- viscosity (323.15 K, 101 kPa, x1 = 0.2969): 37.12 ± 1.1 mPa·s
- viscosity (323.15 K, 101 kPa, x1 = 0.3942): 52.68 ± 1.5 mPa·s
- viscosity (323.15 K, 101 kPa, x1 = 0.4958): 66.7 ± 2.3 mPa·s
- viscosity (323.15 K, 101 kPa, x1 = 0.6022): 79.33 ± 3.4 mPa·s
- viscosity (323.15 K, 101 kPa, x1 = 0.6956): 89.08 ± 4.3 mPa·s
- viscosity (323.15 K, 101 kPa, x1 = 0.8777): 103.8 ± 5.9 mPa·s

SMILES: CCCCn1cc[n+](C)c1.[Cl-] + CN(C)C=O
- viscosity (293.15 K, 101 kPa, x2 = 0.5025): 76.7 ± 21 mPa·s
- viscosity (293.15 K, 101 kPa, x2 = 0.9): 3.41 ± 1.5 mPa·s
- viscosity (298.15 K, 101 kPa, x2 = 0.501): 64.4 ± 11 mPa·s
- viscosity (303.15 K, 101 kPa, x2 = 0.7005): 9.55 ± 1.6 mPa·s
- viscosity (308.15 K, 101 kPa, x1 = 0.1056): 1.665 ± 0.15 mPa·s
- viscosity (308.15 K, 101 kPa, x1 = 0.1399): 2.135 ± 0.18 mPa·s
- viscosity (308.15 K, 101 kPa, x2 = 0.7): 7.76 ± 1.3 mPa·s

SMILES: CCCOCCO + CO
- viscosity (298.15 K, 101.33 kPa, x1 = 0.0024): 0.553 ± 0.01 mPa·s
- viscosity (298.15 K, 101.33 kPa, x1 = 0.0177): 0.581 ± 0.01 mPa·s
- viscosity (298.15 K, 101.33 kPa, x1 = 0.041): 0.62 ± 0.011 mPa·s
- viscosity (298.15 K, 101.33 kPa, x1 = 0.0504): 0.644 ± 0.011 mPa·s
- viscosity (298.15 K, 101.33 kPa, x1 = 0.0697): 0.673 ± 0.011 mPa·s
- viscosity (298.15 K, 101.33 kPa, x1 = 0.0903): 0.729 ± 0.012 mPa·s
- viscosity (298.15 K, 101.33 kPa, x1 = 0.1252): 0.801 ± 0.013 mPa·s
- viscosity (298.15 K, 101.33 kPa, x1 = 0.159): 0.865 ± 0.014 mPa·s
- viscosity (298.15 K, 101.33 kPa, x1 = 0.1826): 0.914 ± 0.015 mPa·s
- viscosity (298.15 K, 101.33 kPa, x1 = 0.2208): 0.989 ± 0.016 mPa·s
- viscosity (298.15 K, 101.33 kPa, x1 = 0.2613): 1.084 ± 0.018 mPa·s
- viscosity (298.15 K, 101.33 kPa, x1 = 0.2874): 1.149 ± 0.019 mPa·s
- viscosity (298.15 K, 101.33 kPa, x1 = 0.3049): 1.199 ± 0.019 mPa·s
- viscosity (298.15 K, 101.33 kPa, x1 = 0.341): 1.284 ± 0.021 mPa·s
- viscosity (298.15 K, 101.33 kPa, x1 = 0.3895): 1.394 ± 0.022 mPa·s
- viscosity (298.15 K, 101.33 kPa, x1 = 0.4426): 1.499 ± 0.024 mPa·s
- viscosity (298.15 K, 101.33 kPa, x1 = 0.4816): 1.577 ± 0.026 mPa·s
- viscosity (298.15 K, 101.33 kPa, x1 = 0.5329): 1.68 ± 0.027 mPa·s
- viscosity (298.15 K, 101.33 kPa, x1 = 0.5596): 1.737 ± 0.028 mPa·s
- viscosity (298.15 K, 101.33 kPa, x1 = 0.6366): 1.878 ± 0.031 mPa·s
- viscosity (298.15 K, 101.33 kPa, x1 = 0.6677): 1.927 ± 0.032 mPa·s
- viscosity (298.15 K, 101.33 kPa, x1 = 0.7153): 2.014 ± 0.034 mPa·s
- viscosity (298.15 K, 101.33 kPa, x1 = 0.7701): 2.115 ± 0.036 mPa·s
- viscosity (298.15 K, 101.33 kPa, x1 = 0.8053): 2.16 ± 0.037 mPa·s
- viscosity (298.15 K, 101.33 kPa, x1 = 0.8437): 2.194 ± 0.038 mPa·s
- viscosity (298.15 K, 101.33 kPa, x1 = 0.8812): 2.248 ± 0.039 mPa·s
- viscosity (298.15 K, 101.33 kPa, x1 = 0.9415): 2.323 ± 0.041 mPa·s
- viscosity (298.15 K, 101.33 kPa, x2 = 0.0116): 2.347 ± 0.042 mPa·s

Reference: the CheMixHub viscosity set
